Assay results: patent US20050004186A1, “MEK inhibiting compounds” (Pfizer Inc, priority 2002, published 2005)
pIC50: −log10 of the molar value. Counter-ions that a name gives are not always drawn.

What was measured:
[1] = tested on: MEK; test: Cellular assay for measuring MEK inhibition, C26CPA1 (inhibition of ERK phosphorylation in C26 cells); type: cell-based, murine; conditions: murine colon 26 (C26) carcinoma cells, one hour at 37 C
How it was run: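 Exponentially growing murine C26 carcinoma cells treated with test compound for one hour at 37° C. CPA1 read-out: Western blot of lysates with dually phosphorylated ERK1/2 antibody, re-probed for total ERK1/2. ELSA read-out: pERK enzyme immunometric ELISA on SDS lysates diluted 1:15.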

[2] = tested on: MEK; test: Cellular assay for measuring MEK inhibition, C26ELSA (pERK ELISA format in C26 cells); type: cell-based, murine
Protocol: Cellular Assay for Measuring MEK Inhibition
MEK inhibitors were evaluated by determining their ability to inhibit phosphorylation of MAP kinase (ERK) in murine colon 26 (C26) carcinoma cells. Since ERK1 and ERK2 represent the only known substrates for MEK1 and MEK2, the measurement of inhibition of ERK phosphorylation in cells provides direct read out of cellular MEK inhibition by the compounds of the invention. Detection of phosphorylation of ERK was carried out either by Western blot or ELISA format. Briefly, the assays involve treatment of exponentially growing C26 cells with varying concentrations of the test compound (or vehicle control) for one hour at 37≡ C. For Western blot assay, cells were rinsed free of compound/vehicle and lysed in a solution containing 70 mM NaCl, 50 mM glycerol phosphate, 10 mM HEPES, […], 1% Triton X-100, 1 mM Na3VO4, 100 μM PMSF, 10 μM leupeptin and 10 μM pepstatin. Supernatants were then subjected to gel electrophoresis and hybridized to a primary antibody recognizing dually phosphorylated ERK1 and ERK2. To evaluate total MAPK levels, blots were subsequently ‘stripped’ and re-probed with a 1:1 mixture of polyclonal antibodies recognizing unphosphorylated ERK1 and ERK2. For pERK ELISA assay, pERK TiterZyme Enzyme immunometric Assay kits were acquired from Assay Designs, Inc (Ann Arbor, Mich.). Briefly, cells were harvested in lysis solution containing 50 mM β-glycerophosphate, 10 mM HEPES, pH7.4, 70 mM NaCl, 2 mM EDTA and 1% SDS and protein lysates were diluted 1:15 with supplied Assay buffer prior to the execution of the assay. The subsequent steps were carried out essentially as recommended by the manufacturer.

Row | melting point | pIC50 [1] | pIC50 ([2]; murine colon 26 (C26) carcinoma cells, one hour at 37 C) | Compound | C26ELSA % Inhibition @ 5 μM ([2]; C26 cells) | C26ELSA % Inhib @ 0.5 μM ([2]; 0.5 μM, C26 cells)
1 | 100 to 103 °C | 7.82 | – | OCCNc1nnc(-c2ccc(F)c(F)c2Nc2ccc(I)cc2F)o1 [Example 29, 2-{5-[3,4-Difluoro-2-(2-fluoro-4-iodo-phenylamino)-phenyl]-[1,3,4]oxadiazol-2-ylamino}-ethanol] | – | –
2 | 121 to 122 °C | 6.74 | – | CCN(CCCCO)c1nnc(-c2ccc(F)c(F)c2Nc2ccc(I)cc2F)o1 [Example 27, 4-({5-[3,4-Difluoro-2-(2-fluoro-4-iodo-phenylamino)-phenyl]-[1,3,4]oxadiazol-2-yl}-ethyl-amino)-butan-1-ol] | – | –
3 | 188 to 189 °C | 7.05 | – | CCNc1nnc(-c2ccc(F)c(F)c2Nc2ccc(I)cc2F)o1 [Example 4, {5-[3,4-Difluoro-2-(2-fluoro-4-iodo-phenylamino)-phenyl]-[1,3,4]oxadiazol-2-yl}-ethyl-amine] | – | –
4 | 116 to 118 °C | 6.82 | – | CCN(CC)CCCNc1nnc(-c2ccc(F)c(F)c2Nc2ccc(I)cc2F)o1 [Example 10, N-{5-[3,4-Difluoro-2-(2-fluoro-4-iodo-phenylamino)-phenyl]-[1,3,4]oxadiazol-2-yl}-N′,N′-diethyl-propane-1,3-diamine] | – | –
5 | 238 to 239 °C | 6.74 | – | CCNc1nnc(-c2ccc(F)c(F)c2Nc2ccc(I)cc2F)s1 [Example 71, {5-[3,4-Difluoro-2-(2-fluoro-4-iodo-phenylamino)-phenyl]-[1,3,4]thiadiazol-2-yl}-ethyl-amine] | – | –
6 | 82 to 83 °C | 7.92 | – | OCCCCNc1nnc(-c2ccc(F)c(F)c2Nc2ccc(I)cc2F)o1 [Example 31, 4-{5-[3,4-Difluoro-2-(2-fluoro-4-iodo-phenylamino)-phenyl]-[1,3,4]oxadiazol-2-ylamino}-butan-1-ol] | – | –
7 | 175 to 178 °C | 8.05 | – | C=CCNc1nnc(-c2ccc(F)c(F)c2Nc2ccc(I)cc2F)o1 [Example 5, Allyl-{5-[3,4-difluoro-2-(2-fluoro-4-iodo-phenylamino)-phenyl]-[1,3,4]oxadiazol-2-yl}-amine] | – | –
8 | 173 to 175 °C | – | – | CNCCNc1nnc(-c2ccc(F)c(F)c2Nc2ccc(I)cc2F)o1 (as salt: hydrochloride) [Example 18, N-{5-[3,4-Difluoro-2-(2-fluoro-4-iodo-phenylamino)-phenyl]-[1,3,4]oxadiazol-2-yl}-N′-methyl-ethane-1,2-diamine] | – | –
9 | 168 to 170 °C | – | – | CN(C)CCCNc1nnc(-c2ccc(F)c(F)c2Nc2ccc(I)cc2F)o1 (as salt: hydrochloride) [Example 16, N-{5-[3,4-Difluoro-2-(2-fluoro-4-iodo-phenylamino)-phenyl]-[1,3,4]oxadiazol-2-yl}-N′,N′-dimethyl-propane-1,3-diamine] | – | –
10 | 157 to 159 °C | 7.17 | – | OCC(O)CNc1nnc(-c2ccc(F)c(F)c2Nc2ccc(I)cc2F)o1 (stereo not drawn) [Example 8, 3-{5-[3,4-Difluoro-2-(2-fluoro-4-iodo-phenylamino)-phenyl]-[1,3,4]oxadiazol-2-ylamino}-propane-1,2-diol] | – | –
11 | 248 to 249 °C | 7.40 | – | Nc1nnc(-c2ccc(F)c(F)c2Nc2ccc(I)cc2F)o1 [Example 1, 5-[3,4-Difluoro-2-(2-fluoro-4-iodo-phenylamino)-phenyl]-[1,3,4]oxadiazol-2-ylamine] | – | –

Continued, molecule first:

Row | Compound | melting point | pIC50 [1] | pIC50 ([2]; murine colon 26 (C26) carcinoma cells, one hour at 37 C) | C26ELSA % Inhibition @ 5 μM ([2]; C26 cells) | C26ELSA % Inhib @ 0.5 μM ([2]; 0.5 μM, C26 cells)
12 | CCc1ccc(Nc2c(-c3nnc(CCCBr)o3)ccc(F)c2F)c(F)c1 [Example 145, {6-[5-(3-Bromo-propyl)-[1,3,4]oxadiazol-2-yl]-2,3-difluoro-phenyl}-(4-ethyl-2-fluoro-phenyl)-amine] | – | – | – | 13% | –
13 | C#Cc1ccc(Nc2c(-c3nnc(CC)o3)ccc(F)c2F)c(F)c1 [Example 144, [6-(5-Ethyl-[1,3,4]oxadiazol-2-yl)-2,3-difluoro-phenyl]-(4-ethynyl-2-fluoro-phenyl)-amine] | – | – | – | 43% | –
14 | CCc1ccc(Nc2c(-c3nnc(NCCO)o3)ccc(F)c2F)c(F)c1 [Example 69, 2-{5-[2-(4-Ethyl-2-fluoro-phenylamino)-3,4-difluoro-phenyl]-[1,3,4]oxadiazol-2-ylamino}-ethanol] | 100 to 103 °C | 7.00 | – | – | –
15 | CC(=O)c1ccc(Nc2c(-c3nnc(NCCN4CCOCC4)o3)ccc(F)c2F)c(F)c1 [Example 149, 1-(4-{2,3-Difluoro-6-[5-(2-morpholin-4-yl-ethylamino)-[1,3,4]oxadiazol-2-yl]-phenylamino}-3-fluoro-phenyl)-ethanone] | – | – | – | 14% | 2%
16 | COc1ccc(Nc2nnc(-c3ccc(F)c(F)c3Nc3ccc(I)cc3F)o2)c(OC)c1 [Example 6, {5-[3,4-Difluoro-2-(2-fluoro-4-iodo-phenylamino)-phenyl]-[1,3,4]oxadiazol-2-yl}-(2.4-dimethoxy-phenyl)-amine] | 185 to 186 °C | < 6.00 | – | – | –
17 | OC1CCN(c2nnc(-c3ccc(F)c(F)c3Nc3ccc(I)cc3F)o2)CC1 [Example 28, 1-{5-[3,4-Difluoro-2-(2-fluoro-4-iodo-phenylamino)-phenyl]-[1,3,4]oxadiazol-2-yl}-piperidin-4-ol] | 216 to 217 °C | 7.13 | – | – | –
18 | C#Cc1ccc(Nc2c(-c3nnc(NC[C@@H](O)CO)o3)ccc(F)c2F)c(F)c1 [Example 151, 3-{5-[2-(4-Ethynyl-2-fluoro-phenylamino)-3,4-difluoro-phenyl]-[1,3,4]oxadiazol-2-ylamino}-propane-1,2(R)-diol] | – | – | 6.92 | – | –
19 | CN(C)CC(C)(C)CNc1nnc(-c2ccc(F)c(F)c2Nc2ccc(I)cc2F)o1 [Example 19, N-{5-[3,4-Difluoro-2-(2-fluoro-4-iodo-phenylamino)-phenyl]-[1,3,4]oxadiazol-2-yl}-2,2,N′,N′-tetramethyl-propane-1.3-diamine] | 143 to 146 °C | 6.51 | – | – | –
20 | OCCCCCNc1nnc(-c2ccc(F)c(F)c2Nc2ccc(I)cc2F)o1 [Example 32, 5-{5-[3,4-Difluoro-2-(2-fluoro-4-iodo-phenylamino)-phenyl]-[1,3,4]oxadiazol-2-ylamino}-pentan-1-ol] | 119 to 121 °C | 6.92 | – | – | –
21 | CCc1ccc(Nc2c(-c3nnc(NCCNC)o3)ccc(F)c2F)c(F)c1 [Example 67, N-{5-[2-(4-Ethyl-2-fluoro-phenylamino)-3,4-difluoro-phenyl]-[1,3,4]oxadiazol-2-yl}-N′-methyl-ethane-1,2-diamine] | 154 to 157 °C | 7.80 | – | – | –
22 | CCc1ccc(Nc2c(-c3nnc(NCCN4CCOCC4)o3)ccc(F)c2F)c(F)c1 [Example 68, {5-[2-(4-Ethyl-2-fluoro-phenylamino)-3,4-difluoro-phenyl]-[1,3,4]oxadiazol-2-yl}-(2-morpholin-4-yl-ethyl)-amine] | 233 to 238 °C | 7.30 | – | – | –
23 | OCC1CCN(c2nnc(-c3ccc(F)c(F)c3Nc3ccc(I)cc3F)o2)CC1 [Example 25, (1-{5-[3,4-Difluoro-2-(2-fluoro-4-iodo-phenylamino)-phenyl]-[1,3,4]oxadiazol-2-yl}-piperidin-4-yl)-methanol] | 90 to 92 °C | < 6.00 | – | – | –
24 | CN(C)c1ccc(Nc2nnc(-c3ccc(F)c(F)c3Nc3ccc(I)cc3F)o2)cc1 [Example 7, N-{5-[3,4-Difluoro-2-(2-fluoro-4-iodo-phenylamino)-phenyl]-[1,3,4]oxadiazol-2-yl}-N′,N′-dimethyl-benzene-1,4-diamine] | 230 to 233 °C | < 6.00 | – | – | –
25 | OC1CCN(c2nnc(-c3ccc(F)c(F)c3Nc3ccc(I)cc3F)o2)C1 (stereo not drawn) [Example 24, 1-{5-[3.4-Difluoro-2-(2-fluoro-4-iodo-phenylamino)-phenyl]-[1,3,4]oxadiazol-2-yl}-pyrrolidin-3-ol] | 182 to 183 °C | 6.77 | – | – | –
26 | OCCC1CCN(c2nnc(-c3ccc(F)c(F)c3Nc3ccc(I)cc3F)o2)CC1 [Example 26, 2-(1-{5-[3,4-Difluoro-2-(2-fluoro-4-iodo-phenylamino)-phenyl]-[1,3,4]oxadiazol-2-yl}-piperidin-4-yl)-ethanol] | 121 to 122 °C | 6.85 | – | – | –
27 | CC(C)(CO)CCCNc1nnc(-c2ccc(F)c(F)c2Nc2ccc(I)cc2F)o1 [Example 23, 5-{5-[3,4-Difluoro-2-(2-fluoro-4-iodo-phenylamino)-phenyl]-[1,3,4]oxadiazol-2-ylamino}-2,2-dimethyl-pentan-1-ol] | 67 to 70 °C | 6.53 | – | – | –
28 | COCCN1CCN(c2nnc(-c3ccc(F)c(F)c3Nc3ccc(I)cc3F)o2)CC1 [Example 22, (2,3-Difluoro-6-{5-[4-(2-methoxy-ethyl)-piperazin-1-yl]-[1,3,4]oxadiazol-2-yl}-phenyl)-(2-fluoro-4-iodo-phenyl)-amine] | 63 to 65 °C | 6.89 | – | – | –
